Results as given in patent publication EP4420677A1, “VACCINES AGAINST TERT-POSITIVE TUMORS” (Altevax, priority 2023, dated 2024).
Peptide text beside a SMILES is read from it.

Legend:
[1] = assay type: binding; settings: pH 7.5
Experimental: L-Dopa alone (0.8mg/ml) was polymerized into melanin for 2h at pH 8.5 and 60°C under agitation. The reaction mixture was then filtered on a 10kDa filter, and the retentate containing the synthetic melanin was resuspended at pH 7.5 in phosphate buffer. Peptides were then added (at the weight ratio melanin/peptide of 2) and the mixtures were incubated for 18 hours at room temperature. Tricine-SDS-PAGE analysis was performed as described in Carpentier; 2017 (op. cit.). Briefly, samples (peptide-Mel or peptide alone) were loaded on acrylamide gels. Following electrophoresis, the gels were stained with Coomassie Brilliant Blue R-250 and imaged with the ChemiDoc XRS+ system (Bio-Rad Laboratory), allowing the quantification of the free peptide in the gel. The binding of peptides to melanin was expressed as the ratio: [amount of unbound peptide in samples Peptide-Mel / amount of peptides in control samples containing peptides alone]. […] Table 3: Binding of peptides on synthetic melanin. L-Dopa (0.8mg/ml) underwent an oxidative polymerization at pH 8.5 in aerobic conditions for 2 hours at 60°C. The reaction mixture was then filtered on a 10kDa filter, and the retentate containing the synthetic melanin was resuspended at pH 7.5. […] The percentage of peptides that bound to melanin was then quantified with SPS-page analysis

[2] = Peptide stability in solution at pH 7.4 (HPLC peak area vs reference); assay type: physicochemical; settings: for Stability of peptides (ratio of the pick area on the indicated day/ pic area of a fresh solution of the same peptide): 7-day incubation in solution at pH7.4, - 20°C; for stability in solution (in words): in solution at physiological pH (pH 7.4)
Experimental: To develop a relevant vaccine, it is necessary to have a proper drug substance stability. To assess stability, the peptides were diluted at à 0,5 mg/mL in water, adjusted at pH 7.4, frozen at -20° C, and analyzed by HPLC (Hypersil GOLD C8 15cm x 4.6mm x 5µm (ThermoFisher) on the indicated day, using an elution buffer CH3CN 15%, TFA 0,1%. The pic area was compared to a reference standard.
Indeed, after 7 days at -20°C, the pic of SEQ ID NO: 4 was reduced by 53%, while SEQ ID NO: 7 was stable (> 95%) for at least 3 months at pH7.4 at -20°C, and at least 7 days at room temperature. Table 4: Stability of peptides after a 7-day incubation period in solution at pH7.4 at different temperature (ratio of the pick area on the indicated day/ pic area of a fresh solution of the same peptide)

[3] = as above; assay type: physicochemical
[4] = Filterability and precipitation of the mixture peptide + melanin; assay type: physicochemical; settings: mixture peptide + melanine in isotonic saline
Excerpt: Filterability of a medical formulation on a 0.2µ filter is important to achieve a sterile solution.

[5] = 7-day incubation in solution at pH7.4, 4°C
[6] = 7-day incubation in solution at pH7.4, Room temperature

percentage of peptides that bound to melanin [1]	Stability of peptides (ratio of the pick area on the indicated day/ pic area of a fresh solution of the same peptide) [2]	stability in solution (in words) [2]	Stability of peptides (ratio of the pick area on the indicated day/ pic area of a fresh solution of the same peptide) [3, 5]	Stability of peptides (ratio of the pick area on the indicated day/ pic area of a fresh solution of the same peptide) [3, 6]	stable (remaining peptide) ([2]; at least 3 months at pH7.4 at -20°C)	stable (remaining peptide) ([2]; at least 7 days at room temperature, pH7.4)	time remaining in suspension [4]	SMILES
59%	47%	highly unstable	–	–	–	–	–	CC[C@H](C)[C@H](NC(=O)CNC(=O)[C@@H](NC(=O)[C@H](CO)NC(=O)[C@H](CCC(N)=O)NC(=O)[C@H](CC(C)C)NC(=O)[C@H](CCCCN)NC(=O)[C@H](CO)NC(=O)[C@H](Cc1c[nH]c2ccccc12)NC(=O)[C@@H](NC(=O)[C@H](CO)NC(=O)[C@H](CCCCN)NC(=O)[C@@H](N)CS)C(C)C)[C@@H](C)CC)C(=O)N[C@@H](CCCNC(=N)N)C(=O)N[C@@H](CCC(N)=O)C(=O)N[C@@H](Cc1c[nH]cn1)C(=O)O [SEQ ID NO: 4, CKSVWSKLQSIGIRQH] (H-CKSVWSKLQSIGIRQH-OH)
–	100%	–	98%	92%	–	–	–	CC[C@H](C)[C@H](NC(=O)CNC(=O)[C@@H](NC(=O)[C@H](CO)NC(=O)[C@H](CCC(N)=O)NC(=O)[C@H](CC(C)C)NC(=O)[C@H](CCCCN)NC(=O)[C@H](CO)NC(=O)[C@H](Cc1c[nH]c2ccccc12)NC(=O)[C@@H](NC(=O)[C@H](CO)NC(=O)[C@@H](N)CCCCN)C(C)C)[C@@H](C)CC)C(=O)N[C@@H](CCCNC(=N)N)C(=O)N[C@@H](CCC(N)=O)C(=O)N[C@@H](Cc1c[nH]cn1)C(=O)O [SEQ ID NO: 1, KSVWSKLQSIGIRQH, reference compound]
–	23%	highly unstable	25%	3%	–	–	–	CC[C@H](C)[C@H](NC(=O)CNC(=O)[C@@H](NC(=O)[C@H](CO)NC(=O)[C@H](CCC(N)=O)NC(=O)[C@H](CC(C)C)NC(=O)[C@H](CCCCN)NC(=O)[C@H](CO)NC(=O)[C@H](Cc1c[nH]c2ccccc12)NC(=O)[C@@H](NC(=O)[C@H](CO)NC(=O)[C@H](CCCCN)NC(=O)[C@@H](N)CCSC)C(C)C)[C@@H](C)CC)C(=O)N[C@@H](CCCNC(=N)N)C(=O)N[C@@H](CCC(N)=O)C(=O)N[C@@H](Cc1c[nH]cn1)C(=O)O [SEQ ID NO: 5, MKSVWSKLQSIGIRQH] (H-MKSVWSKLQSIGIRQH-OH)
–	100%	very stable	100%	100%	> 95%	> 95%	more than 18 hours	CC[C@H](C)[C@H](NC(=O)CNC(=O)[C@@H](NC(=O)[C@H](CO)NC(=O)[C@H](CCC(N)=O)NC(=O)[C@H](CC(C)C)NC(=O)[C@H](CCCCN)NC(=O)[C@H](CO)NC(=O)[C@H](Cc1c[nH]c2ccccc12)NC(=O)[C@@H](NC(=O)[C@H](CO)NC(=O)[C@H](CCCCN)NC(=O)[C@@H](N)CO)C(C)C)[C@@H](C)CC)C(=O)N[C@@H](CCCNC(=N)N)C(=O)N[C@@H](CCC(N)=O)C(=O)N[C@@H](Cc1c[nH]cn1)C(=O)O [SEQ ID NO: 7, SKSVWSKLQSIGIRQH] (H-SKSVWSKLQSIGIRQH-OH)
